Legend:
[1] = system: Aβ42; test: γ-secretase-modulating activity, Method 2: Aβ42 Alphalisa in supernatant of SKNBE2 cells carrying APP 695-wild type (Table 3b); format: cell-based; settings: overnight
Experimental: (§1) Screening was carried out using SKNBE2 cells carrying the APP 695-wild type, grown in Dulbecco's Modified Eagle's Medium/Nutrient mixture F-12 (DMEM/NUT-mix F-12) (HAM) provided by Invitrogen (cat no. 10371-029) containing 5% Serum/Fe supplemented with 1% non-essential amino acids, 1-glutamine 2 mM, Hepes 15 mM, penicillin 50 U/ml (units/ml) en streptomycin 50 μg/ml. Cells were grown to near confluency.
(§2) The screening was performed using a modification of the assay as described in Citron et al (1997) Nature Medicine 3: 67. Briefly, cells were plated in a 384-well plate at 10^4 cells/well in Ultraculture (Lonza, BE12-725F) supplemented with 1% glutamine (Invitrogen, 25030-024), 1% non-essential amino acid (NEAA), penicillin 50 U/ml en streptomycin 50 μg/ml in the presence of test compound at different test concentrations. The cell/compound mixture was incubated overnight at 37° C., 5% CO2. The next day the media were assayed by two sandwich immuno-assays, for Aβ42 and Aβtotal.
(§3) Aβtotal and Aβ42 concentrations were quantified in the cell supernatant using the Aphalisa technology (Perkin Elmer). Alphalisa is a sandwich assay using biotinylated antibody attached to streptavidin coated donorbeads and antibody conjugated to acceptor beads. In the presence of antigen, the beads come into close proximity. The excitation of the donor beads provokes the release of singlet oxygen molecules that trigger a cascade of energy transfer in the acceptor beads, resulting in light emission. To quantify the amount of Aβ42 in the cell supernatant, monoclonal antibody specific to the C-terminus of Aβ42 (JRF/cAβ42/26) was coupled to the receptor beads and biotinylated antibody specific to the N-terminus of Aβ (JRF/AβN/25) was used to react with the donor beads. To quantify the amount of Aβ total in the cell supernatant, monoclonal antibody specific to the N-terminus of Aβ (JRF/AβN/25) was coupled to the receptor beads and biotinylated antibody specific to the mid region of Aβ (biotinylated 4G8) was used to react with the donor beads.
To obtain the values reported in Table 3b, the data were calculated as percentage of the maximum amount of amyloid Beta 42 measured in the absence of the test compound.
(§4) The sigmoidal dose response curves were analyzed using non-linear regression analysis with percentage of the control plotted against the log concentration of the compound. A 4-parameter equation was used to determine the IC50.
(§5) The IC50 values are shown in Table 3b (Aβtot means Aβtotal).

[2] = system: Aβtotal; test: γ-secretase-modulating activity, Method 2: Aβtotal Alphalisa in supernatant of SKNBE2 cells carrying APP 695-wild type (Table 3b); format: cell-based; settings: overnight, read-out: IC50 Aβtot
Experimental: as §1, §2, §3, §4, §5

Compound	IC50 [1] [nM]	IC50 [2] [nM]
COc1cc(-c2nc(Nc3ccc(F)c(F)c3)n(C)n2)ccc1-n1cnc(C)c1 [Compound 112]	129	9120
COc1cc(-c2nc(Nc3cc(F)ccc3Cl)n(C)n2)ccc1-n1cnc(C)c1 [Compound 113]	60	> 10000
COc1cc(-c2nc(Nc3cc(Cl)cc(Cl)c3)n(C)n2)ccc1-n1cnc(C)c1 [Compound 115]	102	> 10000
COc1cc(-c2nc(Nc3c(F)cccc3F)n(C)n2)ccc1-n1cnc(C)c1 [Compound 116]	200	> 10000
COc1cc(-c2nc(Nc3cccc(Cl)c3F)n(C)n2)ccc1-n1cnc(C)c1 [Compound 118]	89	> 10000
COc1cc(-c2nc(Nc3cccc(Cl)c3Cl)n(C)n2)ccc1-n1cnc(C)c1 [Compound 119]	54	> 10000
COc1cc(-c2nc(Nc3cc(F)c(F)cc3I)n(C)n2)ccc1-n1cnc(C)c1 [Compound 120]	123	> 10000
COc1cc(-c2nc(Nc3cc(F)c(F)cc3Cl)n(C)n2)ccc1-n1cnc(C)c1 [Compound 121]	123	> 10000
COc1cc(-c2nc(Nc3c(F)ccc(Cl)c3F)n(C)n2)ccc1-n1cnc(C)c1 [Compound 122]	66	> 15000
COc1cc(-c2nc(Nc3cccc(F)c3F)n(C)n2)ccc1-n1cnc(C)c1 [Compound 124]	151	> 10000
COc1cc(-c2nc(Nc3ccc(Cl)cc3F)n(C)n2)ccc1-n1cnc(C)c1 [Compound 126]	162	> 10000
COc1cc(-c2nc(Nc3c(F)ccc(Br)c3F)n(C)n2)ccc1-n1cnc(C)c1 [Compound 127]	66	> 10000
COc1cc(-c2nc(Nc3cc(C(F)(F)F)ccc3C)n(C)n2)ccc1-n1cnc(C)c1 [Compound 131]	8	6310
COc1cc(-c2nc(Nc3cccc(C(F)(F)F)c3)n(C(C)C)n2)ccc1-n1cnc(C)c1 [Compound 133]	31	2340
COc1cc(-c2nc(Nc3ccc(C(F)(F)F)cc3F)n(C)n2)ccc1-n1cnc(C)c1 [Compound 134]	110	> 10000
CCn1nc(-c2ccc(-n3cnc(C)c3)c(OC)c2)nc1Nc1cc(C(F)(F)F)ccc1F [Compound 135]	26	> 10000
COc1cc(-c2nc(Nc3cc(C(F)(F)F)ccc3F)n(CCC#N)n2)ccc1-n1cnc(C)c1 [Compound 137]	41	> 10000
Cc1cn(-c2ccc(-c3nc(Nc4cc(C(F)(F)F)ccc4F)n(C)n3)cc2OC(F)(F)F)cn1 [Compound 139]	794	> 10000
COc1cc(-c2nc(Nc3cc(F)c(C(F)(F)F)cc3F)n(C)n2)ccc1-n1cnc(C)c1 [Compound 141]	47	> 10000

Compound	IC50 [1] [nM]	IC50 [2] [nM]
COc1cc(-c2nc(Nc3cc(F)c(F)cc3C(F)(F)F)n(C)n2)ccc1-n1cnc(C)c1 [Compound 142]	59	> 10000
COc1cc(-c2nc(Nc3cc(Cl)ccc3C(F)(F)F)n(C)n2)ccc1-n1cnc(C)c1 [Compound 143]	30	> 10000
COc1cc(-c2nc(Nc3cccc(C(F)(F)F)c3)n(CC(F)(F)F)n2)ccc1-n1cnc(C)c1 [Compound 145]	38	2240
CCn1nc(-c2ccc(-n3cnc(C)c3)c(OC)c2)nc1Nc1ccccc1C(F)(F)F [Compound 147]	41	> 10000
Cc1cn(-c2ccc(-c3nc(Nc4ccc(F)cc4C(F)(F)F)n(C)n3)cc2)cn1 [Compound 149]	1700	> 10000
COc1cc(-c2nc(Nc3ccc(C(F)(F)F)cc3)n(C)n2)ccc1-n1cnc(C)c1 [Compound 151]	27	4070
COc1cc(-c2nc(Nc3cccc(F)c3C(F)(F)F)n(C)n2)ccc1-n1cnc(C)c1 [Compound 155]	95	> 10000
COc1cc(-c2nc(Nc3ccc(Cl)cc3C(F)(F)F)n(C)n2)ccc1-n1cnc(C)c1 [Compound 156]	33	> 10000
COc1cc(-c2nc(Nc3cc(F)cc(C(F)(F)F)c3)n(C)n2)ccc1-n1cnc(C)c1 [Compound 159]	21	> 10000
COc1nc(-c2nc(Nc3cc(C(F)(F)F)ccc3Cl)n(C)n2)ccc1-n1cnc(C)c1 [Compound 160]	6	> 10000
COc1cc(-c2nc(Nc3cccc(C(F)(F)F)c3Cl)n(C)n2)ccc1-n1cnc(C)c1 [Compound 163]	62	> 10000
COc1cc(-c2nc(Nc3cccc(C(F)(F)F)c3C)n(C)n2)ccc1-n1cnc(C)c1 [Compound 164]	30	> 10000
COc1cc(-c2nc3n(n2)CCOC3c2cc(OC(F)(F)F)ccc2F)ccc1-n1cnc(C)c1 (stereo not shown) [Compound 165]	138	> 10000
COc1cc(-c2nc3n(n2)CCOC3c2ccc(F)cc2C)ccc1-n1cnc(C)c1 (stereo not shown) [Compound 166]	65	> 10000
COc1cc(-c2nc(Nc3cc(F)ccc3C(F)(F)F)n(C)n2)ccc1-n1cnc(C)c1 [Compound 168]	71	> 10000
Cc1cn(-c2ccc(-c3nc(Nc4ccc(F)cc4C(F)(F)F)n(C)n3)nc2)cn1 [Compound 170]	3240	> 10000
COc1nc(-c2nc(Nc3ccc(F)c(C(F)(F)F)c3)n(C)n2)ccc1-n1cnc(C)c1 [Compound 171]	42	> 15000
COc1cc(-c2nc(Nc3cc(C(F)(F)F)c(F)cc3F)n(C)n2)ccc1-n1cnc(C)c1 [Compound 172]	62	> 10000
COc1cc(-c2nc(Nc3cc(F)ccc3C)n(C)n2)ccc1-n1cnc(C)c1 [Compound 173]	60	> 10000

Compound	IC50 [1] [nM]	IC50 [2] [nM]
COc1cc(-c2nc(Nc3cc(Cl)ccc3C)n(C)n2)ccc1-n1cnc(C)c1 [Compound 174]	20	7410
COc1cc(-c2nc(Nc3ccccc3C(F)(F)F)n(C(C)C)n2)ccc1-n1cnc(C)c1 [Compound 176]	46	> 10000
COc1cc(-c2nc(Nc3cc(C(F)(F)F)ccc3F)n(C(C)C)n2)ccc1-n1cnc(C)c1 [Compound 178]	21	7940
COc1cc(-c2nc(Nc3cc(Cl)ccc3OC(F)(F)F)n(C)n2)ccc1-n1cnc(C)c1 [Compound 183]	13	> 10000
COc1cccc(Nc2nc(-c3ccc(-n4cnc(C)c4)c(OC)c3)nn2C)c1 [Compound 186]	78	> 10000
COc1ccccc1Nc1nc(-c2ccc(-n3cnc(C)c3)c(OC)c2)nn1C [Compound 187]	178	> 10000
COc1cc(Cl)ccc1Nc1nc(-c2ccc(-n3cnc(C)c3)c(OC)c2)nn1C [Compound 188]	178	> 10000
COc1ccc(Cl)c(Nc2nc(-c3ccc(-n4cnc(C)c4)c(OC)c3)nn2C)c1 [Compound 189]	19	> 10000
COc1ccc(F)cc1Nc1nc(-c2ccc(-n3cnc(C)c3)c(OC)c2)nn1C [Compound 190]	214	> 10000
COc1cc(Nc2nc(-c3ccc(-n4cnc(C)c4)c(OC)c3)nn2C)ccc1Cl [Compound 191]	28	> 10000
COc1ccc(Cl)cc1Nc1nc(-c2ccc(-n3cnc(C)c3)c(OC)c2)nn1C [Compound 192]	41	9550
COc1cc(Nc2nc(-c3ccc(-n4cnc(C)c4)c(OC)c3)nn2C)ccc1F [Compound 193]	63	> 10000
COc1cc(-c2nc(Nc3cccc(Cl)c3OC)n(C)n2)ccc1-n1cnc(C)c1 [Compound 194]	65	> 10000
COc1ccc(F)c(Nc2nc(-c3ccc(-n4cnc(C)c4)c(OC)c3)nn2C)c1 [Compound 195]	95	> 10000
COc1cc(-c2nc(Nc3c(F)ccc(OC)c3F)n(C)n2)ccc1-n1cnc(C)c1 [Compound 196]	129	> 10000
COc1ccc(Nc2nc(-c3ccc(-n4cnc(C)c4)c(OC)c3)nn2C)c(F)c1 [Compound 197]	135	> 10000
COc1ccc(C(F)(F)F)cc1Nc1nc(-c2ccc(-n3cnc(C)c3)c(OC)n2)nn1C [Compound 201]	15	> 15000
COc1cc(Nc2nc(-c3ccc(-n4cnc(C)c4)c(OC)c3)nn2C)c(F)c(C(F)(F)F)c1 [Compound 202]	25	> 10000

Reference: patent publication US8946266B2, “Substituted triazole and imidazole derivatives as gamma secretase modulators” (Janssen Pharmaceuticals, Inc., priority 2009, dated 2015)
